The OPERA property sets (Mansouri et al. 2018)

Conditions: not given

With `CC(C)c1ccc(OP(=O)(Oc2ccc(C(C)C)cc2)Oc2ccc(C(C)C)cc2)cc1` the ready biodegradability was “not readily biodegradable”.
In the case of `CCCCOCCO`, the ready biodegradability is reported as “readily biodegradable”.
In the case of `COc1cccc(N)c1`, the ready biodegradability is reported as “not readily biodegradable”.
With `CCCCCCCCCCCCCCCCCCCCCCCC` the ready biodegradability was “readily biodegradable”.
In the case of `CC1(C)CC(=O)CC(C)(C)N1`, the ready biodegradability is reported as “not readily biodegradable”.
For `CCCCCCCCCCCCc1ccccc1`, the ready biodegradability was “readily biodegradable”.
For `C=CC(=O)N(C)C`, the ready biodegradability was “not readily biodegradable”.
In the case of `OCc1ccccc1`, the ready biodegradability is reported as “readily biodegradable”.
For `COc1ccc(C(=O)c2ccccc2)c(O)c1`, the ready biodegradability was “not readily biodegradable”.
In the case of `Cc1cc(-c2cc(C)c(OCC3CO3)c(C)c2)cc(C)c1OCC1CO1` (stereo unspecified), the ready biodegradability is reported as “not readily biodegradable”.
With `CCCCCC(C=O)=Cc1ccccc1` the ready biodegradability was “readily biodegradable”.
With `CNCCCN` the ready biodegradability was “readily biodegradable”.

Going from `O=S(=O)(Cl)c1c(F)c(F)c(F)c(F)c1F` to `FC(F)(F)N1C(F)(F)C(F)(F)OC(F)(F)C1(F)F`, the boiling point falls from 210 °C to 51 °C.

Compared with `CC[Si](Cl)(Cl)Cl`, `CCCC[Si](Cl)(Cl)Cl` is higher in boiling point: 100 °C for the first, 148 °C for the second.

First: CC(C)C(N)=O
Second: CC(C)OC(=O)C(Cl)Cl
The boiling point of the first is higher: 218 °C for the first, 164 °C for the second.

Compared with `CCCCOCCO`, `CCCCCCCOC(=O)CCCCCC` is higher in boiling point: 168 °C for the first, 277 °C for the second.

Compared with `CC(C)CCCCCCC=O`, `CCCC(C)CC(C)CC` (stereo unspecified) is lower in boiling point: 197 °C for the first, 159 °C for the second.

Compared with `CC(Br)(Br)CBr`, `C#CCBr` is lower in boiling point: 190 °C for the first, 89 °C for the second.

Going from `CCc1cccc(C(C)C)c1` to `CC(C)c1ccc(C(C)C)c(C(C)C)c1`, the boiling point rises from 192 °C to 244 °C.

First: CCC(C)(C)C(C)(C)C
Second: CC(C)C(C)CC(C)(C)C (stereo unspecified)
The boiling point of the first is lower: 140 °C for the first, 148 °C for the second.

First: c1ccc2cnccc2c1
Second: Cc1cc2ccccc2[nH]1
The boiling point of the first is lower: 243 °C for the first, 272 °C for the second.

Compared with `CCOC(=O)CBr`, `COCC(=O)Cl` is lower in boiling point: 168 °C for the first, 112 °C for the second.

Going from `COc1cccc(N)c1` to `C[S@](=O)c1ccccc1`, the boiling point rises from 251 °C to 264 °C.

Going from `C=CC(C)(O)CC` (stereo unspecified) to `CCCC/C=C\C(C)(C)O`, the boiling point rises from 118 °C to 177 °C.

Compared with `CCCCCCCCCCCCCCCCCCCCCCCC`, `CCCCCCCCCCCCCCCCCC(=O)OC` is lower in boiling point: 391 °C for the first, 370 °C for the second.

First: O=C1CCC(=O)O1
Second: C[C@H]1CCC[C@H](C)C1=O
The boiling point of the first is higher: 261 °C for the first, 175 °C for the second.

Going from `CC1(C)CC(=O)CC(C)(C)N1` to `CCC1(O)CCCCC1`, the boiling point falls from 205 °C to 166 °C.

Going from `CC=CC(=O)O` to `CN(C=O)c1ccccc1`, the boiling point rises from 185 °C to 243 °C.

First: CCCCCCCCCCCCCCCCC1CCCCC1
Second: CCCCCCCCCCCCc1ccccc1
The boiling point of the first is higher: 385 °C for the first, 328 °C for the second.

Going from `OCC(F)(F)C(F)(F)C(F)(F)C(F)(F)C(F)(F)C(F)(F)C(F)(F)F` to `OCc1ccccc1`, the boiling point rises from 161 °C to 205 °C.

First: CCC(C)Cl (stereo unspecified)
Second: CCC(C#N)c1ccccc1 (stereo unspecified)
The boiling point of the first is lower: 68 °C for the first, 241 °C for the second.

Going from `Cc1ccsc1Br` to `C=CCC#N`, the boiling point falls from 176 °C to 119 °C.

Going from `C[C@@]12CCC[C@H]1[C@@H]1CC[C@H]3CCCC[C@]3(C)[C@H]1CC2` to `C[C@@H]1C[C@@]2(C)[C@@H](CC[C@@H]3[C@@H]2CC[C@]2(C)[C@@H](O)CC[C@@H]32)CC1=O`, the melting point rises from 64.6 °C to 151 °C.

Compared with `CC[Si](Cl)(Cl)Cl`, `CCC(C)Cl` (stereo unspecified) is lower in melting point: -106 °C for the first, -140 °C for the second.

First: CC(C)C(N)=O
Second: CC=CC(=O)O
The melting point of the first is higher: 128 °C for the first, 72 °C for the second.

Going from `CC1=C(O)C(=O)[C@@H]2O[C@@H]2C1=O` to `CC(C)=CCC1=C(O)C(=O)c2ccccc2C1=O`, the melting point rises from 127 °C to 140 °C.

First: NC=S
Second: C=CCC#N
The melting point of the first is higher: 26.5 °C for the first, -87 °C for the second.

First: Oc1ccc(N=Nc2ccccc2)c(O)c1
Second: COc1ccc(C(=O)c2ccccc2)c(O)c1
The melting point of the first is higher: 170 °C for the first, 65.5 °C for the second.

Compared with `CCCCOCCO`, `CCCCCCCOC(=O)CCCCCC` is higher in melting point: -74.8 °C for the first, -33 °C for the second.

First: O=C(NCO)NS(=O)(=O)c1ccc(NC(=O)c2ccccc2C(=O)O)cc1
Second: O=C(O)c1ccc2ccccc2c1O
The melting point of the first is lower: 162 °C for the first, 195 °C for the second.

First: CCCCCCCCCCCCNC(=O)C[N+](C)(C)Cc1ccccc1.[Cl-]
Second: CCCCCCCCCCCCc1ccccc1
The melting point of the first is higher: 148 °C for the first, 3 °C for the second.

First: CCC(C)(C)C(C)(C)C
Second: CC(C)(C)N(NC(=O)c1ccccc1)C(=O)c1ccccc1I
The melting point of the first is lower: -9.8 °C for the first, 188 °C for the second.

Compared with `Cc1nc2ccccc2nc1C`, `Cc1cc2ccccc2[nH]1` is lower in melting point: 105 °C for the first, 61 °C for the second.

First: O=C(O)CCCCCBr
Second: CCCCCCCCCCCC(=O)CC
The melting point of the first is higher: 35 °C for the first, 34 °C for the second.

Compared with `c1ccc2cnccc2c1`, `OCc1ccccc1` is lower in melting point: 26.5 °C for the first, -15.2 °C for the second.

Going from `Clc1cc(Cl)c2oc3c(Cl)c(Cl)cc(Cl)c3c2c1` to `Clc1cccc2c1Oc1c(Cl)c(Cl)c(Cl)c(Cl)c1O2`, the melting point rises from 204 °C to 220 °C.

Going from `O=C(Cl)c1ccccc1O` to `O=C(O)COc1ccccc1C(=O)O`, the melting point rises from 19 °C to 191 °C.

First: C=CCc1cc(Cl)ccc1O
Second: COC(=O)c1cc(Cl)ccc1[N+](=O)[O-]
The melting point of the first is lower: 48 °C for the first, 48.5 °C for the second.

Compared with `COc1cccc(N)c1`, `COc1ccc2[nH]ccc2c1` is higher in melting point: -1 °C for the first, 57 °C for the second.

First: CCCCCCCCCCCCCCCCCCCCCCCC
Second: CCCCCCCCCCCCCCCCCC(=O)OC
The melting point of the first is higher: 54 °C for the first, 39.1 °C for the second.

Compared with `CC1=C[C@@H](O)[C@@H]2C[C@H]1C2(C)C` (racemic), `CC1(C)CC(=O)CC(C)(C)N1` is lower in melting point: 65 °C for the first, 36 °C for the second.

Compared with `O=C1CCC(=O)O1`, `O=C(O)c1cccc(C(=O)O)c1C(=O)O` is higher in melting point: 119 °C for the first, 200 °C for the second.

Compared with `CN(C=O)c1ccccc1`, `C[S@](=O)c1ccccc1` is higher in melting point: 14.5 °C for the first, 32 °C for the second.

Going from `OCCN1CCN(CCCN2c3ccccc3Sc3ccc(Cl)cc32)CC1` to `Cl.N=C(N)SCc1ccc(Cl)cc1`, the melting point rises from 97 °C to 197 °C.

Compared with `CCCCCCCCCCCCCCCCC1CCCCC1`, `CCCCCCCCCCCCCCCC[N+](C)(C)C.[Br-]` is higher in melting point: 33.6 °C for the first, 240 °C for the second.

Compared with `CCC1(O)CCCCC1`, `CC(C)[C@@H](C)/C=C/[C@@H](C)[C@H]1CC[C@H]2C3=CC=C4C[C@@H](O)CC[C@]4(C)C3=CC[C@]12C` is higher in melting point: 34.5 °C for the first, 146 °C for the second.

Compared with `CC(=O)Nc1c(I)c(NC(C)=O)c(I)c(C(=O)[O-])c1I.[Na+]`, `CCCCCCCCOC(=O)c1cc(O)c(O)c(O)c1` is lower in melting point: 261 °C for the first, 102 °C for the second.

Compared with `Clc1cccnc1Cl`, `NC(=O)c1ccc(Cl)cc1` is higher in melting point: 66 °C for the first, 174 °C for the second.

First: CCCCCC(C=O)=Cc1ccccc1
Second: CCCCc1ccc(C(=O)O)nc1
The melting point of the first is lower: 80 °C for the first, 97 °C for the second.

First: C[N+](C)(C)c1ccccc1.[I-]
Second: Cc1ccnc(-c2cc(C)ccn2)c1
The melting point of the first is higher: 224 °C for the first, 175 °C for the second.

First: CCCCCCCC/C=C\CCCCCCCC#N
Second: CCCCCCCCCCCCCCCCOC(=O)C(C)O (stereo unspecified)
The melting point of the first is lower: -1 °C for the first, 41 °C for the second.

First: FC(F)(F)N1C(F)(F)C(F)(F)OC(F)(F)C1(F)F
Second: Nc1ccc(S(=O)(=O)c2ccc(N)cc2)cc1
The melting point of the first is lower: -80 °C for the first, 176 °C for the second.

First: Cc1cccc(N=Nc2ccc(N(C)C)cc2)c1
Second: CCCC[P+](CCCC)(CCCC)Cc1ccc(Cl)cc1Cl.[Cl-]
The melting point of the first is higher: 138 °C for the first, 117 °C for the second.

In the case of `Nc1nc(Cl)cc(Cl)n1`, the melting point is reported as 220 °C.

Compared with `CC[Si](Cl)(Cl)Cl`, `CCC(C)Cl` (stereo unspecified) is higher in log10 vapour pressure (mmHg): 1.67 for the first, 2.19 for the second.

First: O=C(NC(=O)c1c(F)cccc1F)Nc1ccc(Cl)c(Oc2ncc(C(F)(F)F)cc2Cl)c1
Second: Clc1cccc2c1Oc1c(Cl)c(Cl)c(Cl)c(Cl)c1O2
The log10 vapour pressure (mmHg) of the first is lower: -12 for the first, -9.25 for the second.

`CCCCOCCO` and `CCCC[C@@H](O)CC` are within 0.2 log units of each other in log10 vapour pressure (mmHg): -0.0555 for the first, -0.131 for the second.

`CCC(C)(C)C(C)(C)C` and `CC(C)C(C)CC(C)(C)C` (stereo unspecified) are within 0.2 log units of each other in log10 vapour pressure (mmHg): 0.976 for the first, 0.779 for the second.

`c1ccc2cnccc2c1` and `OCc1ccccc1` are within 0.2 log units of each other in log10 vapour pressure (mmHg): -1.16 for the first, -1.03 for the second.

Compared with `COC(=O)NC(=S)Nc1ccccc1NC(=S)NC(=O)OC`, `COc1cccc(N)c1` is higher in log10 vapour pressure (mmHg): -7.15 for the first, -1.12 for the second.

Compared with `CCCCCCCCCCCCCCCCCCCCCCCC`, `CCCCCCCCCCCCCCCCCC(=O)OC` is higher in log10 vapour pressure (mmHg): -5.39 for the first, -4.87 for the second.

Going from `O=C1CCC(=O)O1` to `Cc1cc(Cl)cc2c1SC(=C1Sc3c(C)cc(Cl)cc3C1=O)C2=O`, the log10 vapour pressure (mmHg) falls from -2.82 to -9.52.

Going from `CC=CC(=O)O` to `CCCCCCCCCCCCc1ccccc1`, the log10 vapour pressure (mmHg) falls from -0.542 to -4.29.

Compared with `C=CCC#N`, `CCCC[P+](CCCC)(CCCC)Cc1ccc(Cl)cc1Cl.[Cl-]` is lower in log10 vapour pressure (mmHg): 1.27 for the first, -6.15 for the second.

Compared with `CCCCOCCO`, `CCC(C)Cl` (stereo unspecified) is higher in log10 Henry constant (atm·m³/mol): -5.8 for the first, -1.62 for the second.

Going from `OCc1ccccc1` to `C#CCBr`, the log10 Henry constant (atm·m³/mol) rises from -6.47 to -2.95.

Compared with `CCCCOCCO`, `OCc1ccccc1` is lower in log10 Koc (L/kg): 1.83 for the first, 1.1 for the second.

`COC(=O)NC(=S)Nc1ccccc1NC(=S)NC(=O)OC` showed a log10 Koc (L/kg) of 3.25.

With `CCCCCCCCCCCCCCCCCCCCCCCC` the log10 biodegradation half-life (days) was 2.06.

In the case of `Clc1ccc2cc(Cl)c(Cl)c(Cl)c2c1`, the log10 Koa is reported as 8.35.

Same assay, conditions: fish

For `COc1ccc(C(=O)c2ccccc2)c(O)c1`, the log10 BCF was 1.97.

For `CCCCCCCCc1ccc2ccc3cccc4ccc1c2c34`, the log10 biotransformation half-life (days) was 1.26.
